Molecular target: T1, hROMK (hKir1.1) (Homo sapiens, UniProt P48048)
T1 construct: expressed in transfected cells
T1 sequence (P48048 1-391): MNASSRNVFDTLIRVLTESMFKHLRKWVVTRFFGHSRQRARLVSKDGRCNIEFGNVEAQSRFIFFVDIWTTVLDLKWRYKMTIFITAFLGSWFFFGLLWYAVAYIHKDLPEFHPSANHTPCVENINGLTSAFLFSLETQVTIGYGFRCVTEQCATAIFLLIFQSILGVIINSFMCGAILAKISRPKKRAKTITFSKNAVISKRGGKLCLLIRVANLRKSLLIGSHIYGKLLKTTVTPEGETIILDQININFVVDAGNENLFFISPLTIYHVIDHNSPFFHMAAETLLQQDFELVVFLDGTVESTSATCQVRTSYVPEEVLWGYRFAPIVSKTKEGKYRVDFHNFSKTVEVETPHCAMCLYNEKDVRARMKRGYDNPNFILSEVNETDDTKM
Experiment: Thallium Flux Assay (ROMK channel functional thallium flux assay, FLIPR-Tetra)
Assay type: cell-based
Settings: HEK293 cells stably expressing hROMK (hKir1.1); FluxOR thallium flux, 30 min compound incubation; concentration inhibiting 50% of ROMK thallium flux signal
Protocol: The following Thallium Flux Assay was performed on each of the final product compounds in the Examples.
HEK293 cells stably expressing hROMK (hKir1.1) were grown at 37° C. in a 10% CO2 humidified incubator in complete growth media: Dulbecco's Modified Eagle Medium supplemented with non-essential amino acids, Penicillin/Streptomycin/Glutamine, G418 and FBS. At >80% confluency, the media was aspirated from the flask and rinsed with 10 mL calcium/magnesium-free phosphate buffered saline (PBS). 5 mL of 1× trypsin (prepared in Ca/Mg Free PBS) was added to T-225 flask and the flask was returned to 37° C./CO2 incubator for 2-3 minutes. To dislodge the cells, the side of the flask was gently banged with one's hand. The cells were completely titrated and then the cells were transferred to 25 mL complete media, centrifuged at 1,500 rpm for 6 min followed by resuspension in complete growth media, and the cell concentration was determined. For typical re-seeding, 4E6 cells/T-225 flask will attain >80% confluency in 4 days. Under ideal growth conditions and appropriate tissue culture practices, this cell line is stable for 40-45 passages.
Compound Buffer (per microplate): 20 mL Probenecid/Assay Buffer; 0.3 mM ouabain (10 mM ouabain in water can be stored in amber bottle/aluminum foil at room temperature); Test compound
Stimulant Buffer (prepared at 5× final concentration in 1× FluxOR™Chloride-Free Buffer): 7.5 mM thallium sulfate and 0.75 mM potassium sulfate (to give a final assay concentration of 3 mM Thallium/0.3 mM potassium). Store at 4° C. when not in use. If kept sterile, this solution is good for months.
The ROMK channel functional thallium flux assay was performed in 384 wells, using the FLIPR-Tetra instrument. HEK-hKir1.1 cells were seeded in Poly-D-Lysine microplates and kept in a 37° C.-10% CO2 incubator overnight. On the day of the experiment, the growth media was replaced with the FluxOR™ reagent loading buffer and incubated, protected from light, at ambient temperature (23-25° C.) for 90 min. The loading buffer was replaced with assay buffer±test compound followed by 30 min incubation at ambient temperature, where the thallium/potassium stimulant was added to the microplate.
• 1. Seed HEK-hKir1.1 cells (50 μl at 20,000 cells/well) in 384-well PDL coated Microplates • 2. Allow cells to adhere overnight in humidified 37° C./10% CO2 incubator • 3. Completely remove cell growth media from microplate and replace with 25 μl loading buffer • 4. Incubate Microplate at room temperature, protected form light, for 90 min • 5. Remove loading buffer and replace with 25 μl 1× Assay Buffer±test compound. • 6. Incubate microplate at room temperature, protected from light, for 30 min • 7. At FLIPR-Tetra 384: Add stimulant (thallium/potassium) solution to microplate and monitor fluorescence. Excitation=400 nm, Emission=460 & 580 nm. Collect data for ˜10 min.
The fluorescence intensity of wells containing 3 μM of a standard control ROMK inhibitor of the present invention was used to define the ROMK-sensitive component of thallium flux. Fluorescence in the presence of test compounds was normalized to control values to provide % fluorescence change. IC50 values represent the concentration of compound that inhibited 50% of the ROMK thallium flux signal.

Structure (SMILES)	IC50
N#Cc1ccc(C(O)CN2CCC3(CC2)CCN(c2ccc4nncn4n2)C3)nc1 (stereo not drawn) [Example 42]	117 nM
Cc1c([C@@H](O)CN2CCC3(CC2)CCN(c2ccnc4c2OCO4)C3=O)ccc2c1COC2=O [Example 38, (R)-2-([1,3]dioxolo[4,5-b]pyridin-7-yl)-8-(2-hydroxy-2-(4-methyl-1-oxo-1,3-dihydroisobenzofuran-5-yl)ethyl)-2,8-diazaspiro[4.5]decan-1-one]	54.9 nM
Cc1c([C@@H](O)CN2CCC3(CC2)CCN(c2ccc4nnc(C)n4n2)C3)ccc2c1COC2=O [Example 19]	74.7 nM
CSCc1nnc2ccc(N3CCC4(CCN(C[C@H](O)c5ccc6c(c5C)COC6=O)CC4)C3)nn12 [Example 11]	47.7 nM
Cc1c([C@@H](O)CN2CCC3(CC2)CCN(c2ccc4sccc4n2)C3=O)ccc2c1COC2=O [Example 34]	427 nM
COc1cc(C(O)CN2CCC3(CC2)CCN(c2ccc4nncn4n2)C3)ccc1C#N (stereo not drawn) [Example 50]	41.5 nM
Cc1c([C@@H](O)CN2CCC3(CC2)CCN(c2cc4cnccc4s2)C3=O)ccc2c1COC2=O [Example 37]	117 nM

Next, values leading:

IC50	Structure (SMILES)
32.6 nM	Cc1c([C@@H](O)CN2CCC3(CC2)CCN(c2snc4ccccc24)C3=O)ccc2c1COC2=O [Example 82]
19.2 nM	Cc1c([C@@H](O)CN2CCC3(CC2)CCN(c2ccc4nonc4n2)C3)ccc2c1COC2=O [Example 95, (R)-5-(2-(2-([1,2,5]oxadiazolo[3,4-b]pyridin-5-yl)-2,8-diazaspiro[4.5]decan-8-yl)-1-hydroxyethyl)-4-methylisobenzofuran-1(3H)-one]
18.7 nM	Cc1c(C(O)CN2CCC3(CC2)CCN(c2ccc4nncn4n2)C3)ccc(C#N)c1F (racemic) [Example 53]
274 nM	Cc1c([C@@H](O)CN2CCC3(CC2)CC(=O)N(c2ccc4nonc4n2)C3)ccc2c1COC2=O [Example 93]
72.6 nM	OC(CN1CCC2(CCN(c3ccc4nncn4n3)CC2)C1)c1ccc(-n2cnnn2)nc1 (racemic) [Example 69]
412 nM	N#Cc1ccc(C(O)CN2CCC3(CC2)CC(=O)N(c2ccc4nncn4n2)C3)nc1 (stereo not drawn) [Example 59]
27.3 nM	Cc1c([C@@H](O)CN2CCC3(CC2)CCN(c2cnc4nonc4c2)C3)ccc2c1COC2=O [Example 92, (R)-5-(2-(2-([1,2,5]oxadiazolo[3,4-b]pyridin-6-yl)-2,8-diazaspiro[4.5]decan-8-yl)-1-hydroxyethyl)-4-methylisobenzofuran-1(3H)-one]
250 nM	COc1cc([C@@H](O)CN2CCC3(CC2)CCN(c2nn4cnnc4s2)C3)ncc1C#N [Example 72]

From patent publication US20170275302A1, “INHIBITORS OF THE RENAL OUTER MEDULLARY POTASSIUM CHANNEL” (Merck Sharp & Dohme Corp., priority 2014, published 2017)
